Source: patent US7872006B2, “Pyrazole compounds having cannabinoid receptor (CB1) antagonizing activity” (Mitsubishi Tanabe Pharma Corporation, priority 2005, dated 2011)
Read-outs that look alike come from different tables or passages of the source.

Molecular target: T1, Human CB1 receptor (Homo sapiens, UniProt P21554)
T1 construct: host or cells: CHO cells; the membrane fraction was prepared in house from the purchased recombinant line
Assay: Human CB1 receptor binding assay ([3H]-CP55940 displacement)
Protocol: [Human CB1 Receptor Binding Assay]
(1) Preparation of human CB1 receptor (membrane fraction):
Human CB1-expressing cell line: hCB1/CHO#C3 (Euroscreen)
The receptor-expressing cells cultivated in the above medium were washed with phosphate buffer (×2) and thereto was added Buffer A (2 mL) under ice-cooling or 4° C. (the following procedures were also carried out at the same temperature). The cells were collected by using a cell-scraper, treated by a microtip-type ultrasonicator for 20 seconds (pulse-on: 2 sec, pulse-off: 1 sec) and centrifuged (500×g, 15 min). The supernatant was separated and centrifuged (43000×g, 60 min). The resultant pellet was suspended in Buffer A and homogenized with a potter-type homogenizer. To the homogenate was added an equal volume of 80% glycerol and stored at −80° C.
(2) Procedure of CB1 Receptor Binding Assay:
Radioligand: [^3H]-CP55940 (30 nM/7992 dpm/μL) prepared by diluting 8.3 µM solution of the radioligand with Buffer B
Each well of the assay plate (96-well, Costar Code#3371) was filled with Buffer B (140 μL), a solution of each test compound in dimethylsulfoxide (20 μL, […]), radioligand (20 μL) and membrane preparation (20 μL, 0.5 µg/20 μL) and the mixture was incubated at 30° C. for 90 minutes to proceed the binding reaction. The reaction mixture was harvested to each well of a plate presoaked with the above coating solution (Packard Unifilter GF/B, #6005177). The plate was washed with Buffer C (200 μL×10) and dried at 50° C. for 1 hour and Microscinti 40 (40 μL) was added to each well. The bound radiolabel was quantitated by scintilation counting (Top Count NXT, Packard). IC50 value of each test compound against the radioligand-binding to CB1 receptors was calculated on the basis of the quantitated radiolabel activity by using Graphpad Prism 3.02.

[1] = radioligand [3H]-CP55940, membrane fraction of hCB1/CHO cells, 30° C. for 90 minutes, read-out: IC50

T1 sequence (P21554 whole entry): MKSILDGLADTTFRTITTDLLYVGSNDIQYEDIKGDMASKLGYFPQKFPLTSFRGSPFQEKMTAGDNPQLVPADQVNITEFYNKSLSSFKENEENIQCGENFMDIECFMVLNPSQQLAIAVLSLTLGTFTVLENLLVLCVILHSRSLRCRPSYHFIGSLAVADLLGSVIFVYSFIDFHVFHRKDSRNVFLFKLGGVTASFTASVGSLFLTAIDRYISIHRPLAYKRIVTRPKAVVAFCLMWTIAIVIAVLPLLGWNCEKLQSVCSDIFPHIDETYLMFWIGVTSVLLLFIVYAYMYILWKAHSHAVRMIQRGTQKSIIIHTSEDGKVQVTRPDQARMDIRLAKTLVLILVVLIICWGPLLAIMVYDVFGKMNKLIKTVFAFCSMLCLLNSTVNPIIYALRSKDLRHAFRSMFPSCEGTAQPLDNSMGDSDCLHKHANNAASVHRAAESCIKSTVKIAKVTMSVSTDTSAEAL

| Compound | IC50 [1] | IC50 |
| --- | --- | --- |
| CCNC(=O)NCCOc1c(C(=O)NN2CCCC2)nn(-c2ccccc2Cl)c1-c1ccc(Cl)cc1 [Example 288, 1-(2-chlorophenyl)-5-(4-chlorophenyl)-4-[2-(N′-ethylureido)ethoxy]-3-[N-(1-pyrrolidinyl)carbamoyl]-1H-pyrazole] | 100 to 500 nM |  |
| COc1c(C(=O)NN(C)C)nn(-c2ccccc2Cl)c1-c1ccc(C(F)(F)F)cc1 [Example 134] | 10 to 100 nM |  |
| COc1c(C(=O)NN2CCN(C(=O)c3ccc(F)cc3F)CC2)nn(-c2ccccc2Cl)c1-c1ccc(Cl)cc1 [Example 216] | 10 to 100 nM |  |
| NC(=O)COc1c(C(=O)NN2CCC(C(N)=O)(c3ccccc3)CC2)nn(-c2ccccc2Cl)c1-c1ccc(Cl)cc1 [Example 276, 1-(2-chlorophenyl)-5-(4-chloro-phenyl)-4-carbamoylmethoxy-3-[N-(4-carbamoyl-4-phenylpiperidin-1-yl)carbamoyl]-1H-pyrazole] | 10 to 100 nM |  |
| COc1c(C(=O)NN2CCN(c3ccc(C(F)F)cn3)CC2)nn(-c2ccccc2Cl)c1-c1ccc(Cl)cc1 [Example 339, 1-(2-chlorophenyl)-5-(4-chlorophenyl)-3-[N-[4-(5-difluoromethyl-pyridin-2-yl)piperazin-1-yl]carbamoyl]-4-methoxy-1H-pyrazole] |  | 10 to 100 nM |
| 1-(2-chlorophenyl)-5-(4-chlorophenyl)-4-hydroxy-3-[N′-(4-tetrahydropyranyl)ureido]-1H-pyrazole [Example 18] | 10 to 100 nM |  |
| COc1c(C(=O)NCC(F)(F)F)nn(-c2ccccc2Cl)c1-c1ccc(Cl)cc1 [Example 4] | 10 to 100 nM |  |
| O=C(NN1CCC(F)(F)CC1)c1nn(-c2ccccc2Cl)c(-c2ccc(Cl)cc2)c1OC(F)F [Example 307] | < 10 nM |  |
| COCCOc1c(C(=O)NN2CCCC2)nn(-c2ccccc2Cl)c1-c1ccc(C(F)(F)F)cc1 [Example 148] | 10 to 100 nM |  |
| CCNC1(C(N)=O)CCN(C(=O)c2nn(-c3ccccc3Cl)c(-c3ccc(Cl)cc3)c2O)CC1 [Example 279, 1-(2-chlorophenyl)-5-(4-chlorophenyl)-4-hydroxy-3-[[4-carbamoyl-4-(ethylamino)piperidino]carbonyl]-1H-pyrazole] | 10 to 100 nM |  |
| COc1c(C(=O)NC2CCCC2)nn(-c2ccccc2Cl)c1-c1ccc(Cl)cc1 [Example 55] |  | 10 to 100 nM |
| COc1c(C(=O)CN2CCS(=O)(=O)CC2)nn(-c2ccccc2Cl)c1-c1ccc(Cl)cc1 [Example 36, 1-(2-chlorophenyl)-5-(4-chlorophenyl)-4-methoxy-3-[1-(1,1-dioxothiomorpholino)acetyl]-1H-pyrazole] | 10 to 100 nM |  |
